In ChEMBL document CHEMBL1201862, “PubChem BioAssay data set” (2004):
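Dose response: 5 concentrations. Exposure: 48 h. Format: 96-well plates. Endpoint: linear interpolation; highest concentration if not reached. GI50 = concentration required for 50% inhibition of growth.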 Calls of active or inactive are those of the source. No stated cut-off is given here; in the data, active = GI50 up to about 1.1 µM and inactive = higher.

Key:
Experiment in all cases: NCI anticancer screen, dose series, 48 h
[1] = system: 786-0
[2] = system: ACHN
[3] = system: CAKI-1
[4] = system: COLO 205
[5] = system: HCC 2998
[6] = system: HOP-92
[7] = system: HT-29
[8] = system: NCI-H226
[9] = system: NCI-H23
[10] = system: NCI-H460
[11] = system: NCI/ADR-RES
[12] = system: OVCAR-3
[13] = system: OVCAR-4
[14] = system: OVCAR-5
[15] = system: RPMI-8226
[16] = system: SF-539
[17] = system: SK-MEL-5
[18] = system: SW-620
[19] = system: UACC-257
[20] = system: UO-31

Measured: GI50

OC1=C(c2ccccc2)C2=NCCN2c2ccccc21
inactive: [1] 42.5 µM | [2] 40.6 µM | [3] > 100 µM | [4] 47 µM | [5] 41.1 µM | [6] > 100 µM | [7] 55.2 µM | [8] 48.9 µM | [9] 33.5 µM | [10] 49.9 µM | [11] 52.6 µM | [12] 18.2 µM | [13] > 100 µM | [14] 66.1 µM | [15] 36.4 µM | [16] 43.8 µM | [17] 27.8 µM | [18] 78.7 µM | [19] 93.1 µM | [20] 36.9 µM

Cc1ccc(S(=O)(=O)C2=c3ncccc3=C3C(=O)c4ccccc4C(=O)C32)cc1 (stereo not given)
inactive: [1] 28.4 µM | [2] 51.3 µM | [3] 64.6 µM | [4] > 100 µM | [5] > 10 µM | [6] 25.4 µM | [7] > 100 µM | [8] > 29.9 µM | [9] 64 µM | [10] 7.11 µM | [11] 49.3 µM | [12] 55.8 µM | [13] 15.8 µM | [14] > 10 µM | [15] > 100 µM | [16] 2.75 µM | [17] 2.79 µM | [18] > 100 µM | [19] 66.7 µM | [20] > 72.1 µM
